Test results reported in PMC4984914 (British Journal of Cancer, 2016).

Legend:
Assay type in all cases: in vivo
[1] = Preclinical plasma level of cleavage product 12ADT-Asp after dosing; settings: mice; any time after dosing of mipsagargin
[2] = as above; settings: rats; any time after dosing of mipsagargin
[3] = as above; settings: monkeys; any time after dosing of mipsagargin

Measured: Level of cleavage product 12ADT-Asp in plasma

C/C=C(/C)C(=O)O[C@H]1C(C)=C2[C@H]([C@@H]1OC(=O)CCCCCCC)[C@@](C)(OC(C)=O)C[C@H](OC(=O)CCCCCCCCCCCNC(=O)C[C@H](N)C(=O)O)[C@@]1(O)[C@H]2OC(=O)[C@@]1(C)O [12ADT-Asp]
virtually undetectable: all assays above
